# Measured values published in patent US8859493B2, “Insulin derivatives” (Novo Nordisk A/S, priority 2005, dated 2014).
# Target: human insulin receptor (Homo sapiens, UniProt P06213)
# Assay: Insulin receptor binding, SPA (Scintillation Proximity Assay) microtiterplate antibody capture assay
# Conditions: relative to human insulin; purified recombinant human insulin receptor - exon 11; A14 Tyr[125I]-human insulin tracer; 16 hours incubation
# Procedure: The affinity of the insulin analogues of the invention for the human insulin receptor was determined by a SPA assay (Scintillation Proximity Assay) microtiterplate antibody capture assay. SPA-PVT antibody-binding beads, anti-mouse reagent (Amersham Biosciences, Cat No. PRNQ0017) were mixed with 25 ml of binding buffer (100 mM HEPES pH 7.8; 100 mM sodium chloride, 10 mM MgSO4, 0.025% Tween-20). Reagent mix for a single Packard Optiplate (Packard No. 6005190) is composed of 2.4 μl of a 1:5000 diluted purified recombinant human insulin receptor—exon 11, an amount of a stock solution of A14 Tyr[^125I]-human insulin corresponding to 5000 cpm per 100 μl of reagent mix, 12 μl of a 1:1000 dilution of F12 antibody, 3 ml of SPA-beads and binding buffer to a total of 12 ml. A total of 100 μl was then added and a dilution series is made from appropriate samples. To the dilution series was then added 100 μl of reagent mix and the samples were incubated for 16 hours while gently shaken. The phases were the then separated by centrifugation for 1 min and the plates counted in a Topcounter. The binding data were fitted using the nonlinear regression algorithm in the GraphPad Prism 2.01 (GraphPad Software, San Diego, Calif.).
# Chain of human insulin receptor (P06213 28-746 isoform P06213-2 limits assumed): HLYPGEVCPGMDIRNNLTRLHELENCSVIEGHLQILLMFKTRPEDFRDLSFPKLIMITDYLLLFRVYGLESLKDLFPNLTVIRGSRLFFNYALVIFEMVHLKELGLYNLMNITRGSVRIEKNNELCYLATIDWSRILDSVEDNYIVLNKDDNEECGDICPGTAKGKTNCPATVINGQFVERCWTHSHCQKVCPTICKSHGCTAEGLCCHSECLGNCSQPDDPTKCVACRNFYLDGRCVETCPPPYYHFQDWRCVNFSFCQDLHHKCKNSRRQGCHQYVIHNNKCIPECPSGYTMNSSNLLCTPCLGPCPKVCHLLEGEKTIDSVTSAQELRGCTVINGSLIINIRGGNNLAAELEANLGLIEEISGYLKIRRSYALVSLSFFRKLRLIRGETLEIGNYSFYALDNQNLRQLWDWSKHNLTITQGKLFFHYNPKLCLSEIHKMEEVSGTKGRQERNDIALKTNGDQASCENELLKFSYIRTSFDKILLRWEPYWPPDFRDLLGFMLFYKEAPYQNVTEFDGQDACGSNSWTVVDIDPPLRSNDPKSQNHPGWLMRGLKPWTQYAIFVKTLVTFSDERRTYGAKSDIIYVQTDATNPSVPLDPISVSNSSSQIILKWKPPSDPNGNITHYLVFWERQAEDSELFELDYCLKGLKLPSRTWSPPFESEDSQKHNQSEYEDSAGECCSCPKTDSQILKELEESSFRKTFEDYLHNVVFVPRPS
# Chain of human insulin receptor (P06213 763-1382 partner limits assumed): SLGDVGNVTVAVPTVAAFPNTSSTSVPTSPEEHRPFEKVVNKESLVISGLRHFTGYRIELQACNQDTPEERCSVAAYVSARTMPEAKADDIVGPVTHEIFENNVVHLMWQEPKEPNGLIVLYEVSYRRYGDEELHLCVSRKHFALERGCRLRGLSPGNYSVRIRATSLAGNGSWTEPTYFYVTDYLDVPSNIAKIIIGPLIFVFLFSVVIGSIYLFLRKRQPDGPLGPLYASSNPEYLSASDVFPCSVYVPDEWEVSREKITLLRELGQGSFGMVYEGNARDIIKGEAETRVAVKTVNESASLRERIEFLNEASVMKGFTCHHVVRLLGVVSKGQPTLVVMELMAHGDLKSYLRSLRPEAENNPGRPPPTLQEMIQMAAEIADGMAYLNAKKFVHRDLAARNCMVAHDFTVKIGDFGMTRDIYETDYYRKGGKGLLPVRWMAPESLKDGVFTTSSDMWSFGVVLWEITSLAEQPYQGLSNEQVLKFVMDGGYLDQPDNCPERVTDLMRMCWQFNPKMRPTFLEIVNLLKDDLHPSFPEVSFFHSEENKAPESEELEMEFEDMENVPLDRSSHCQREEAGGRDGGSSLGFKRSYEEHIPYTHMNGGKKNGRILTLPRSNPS
row,Substance,Insulin receptor affinity in relation to human insulin
1,N^εB29-3-[2-(2-{2-[2-(ω-carboxy-heptadecanoylamino)-ethoxy]-ethoxy}-ethoxy)-ethoxy]-propionyl-γ-glutamyl desB30 human insulin [example 6],8.3
2,N^εB29-(3-(2-{2-[2-(9-carboxynonanoylamino)ethoxy]ethoxy}ethylcarbamoyl) propionyl-γ-glutamyl) desB30 human insulin [example 10],27
3,N^εB29-(3-(3-{4-[3-(7-Carboxyheptanoylamino)propoxy]butoxy}propylcarbamoyl)-propionyl-γ-glutamyl) desB30 human insulin [example 8],34
4,N^εB29-(3-[2-(2-(2-[2-(13-Carboxy-tridecanoylamino)-ethoxy)-ethoxy]-ethoxy)-ethoxy]-propionoyl-γ-glutamyl) desB30 human insulin [example 15],35
5,N^εB29-(3-(2-{2-[2-(15-Carboxy-pentadecanoylamino)-ethoxy]-ethoxy}-ethylcarbamoyl)-propionyl-γ-glutamyl) desB30 human insulin [example 17],17
6,N^εB29-(ω-[2-(2-{2-[2-(2-carboxy-ethoxy)-ethoxy]-ethoxy}-ethoxy)-ethylcarbamoyl]-heptadecanoyl-γ-glutamyl) desB30 human insulin [example 5],5.6
7,N^εB29-(3-[2-{2-(2-[ω-carboxy-pentadecanoyl-γ-glutamyl-(2-amino-ethoxy)]-ethoxy)-ethoxy}-ethoxy]-propionyl) desB30 human insulin [example 1],11
8,N^εB29-(ω-[2-(2-{2-[2-(2-carboxy-ethoxy)-ethoxy]-ethoxy}-ethoxy)-ethylcarbamoyl]-heptadecanoyl-α-glutamyl) desB30 human insulin [example 4],9.2
9,N^εB29-(3-[2-(2-{2-[2-(15-carboxypentadecanoylamino)ethoxy]ethoxy}ethoxy)-ethoxy]propionyl)) desB30 human insulin [example 13],17
10,N^εB29-{3-[2-(2-{2-[2-(15-carboxy-pentadecanoylamino)-ethoxy]-ethoxy}-ethoxy)-ethoxy]-propionyl-γ-glutamyl desB30 human insulin [example 3],14
11,N^εB29-(3-[2-(2-{2-[2-(2-{2-[2-(13-carboxy-tridecanoylamino)-ethoxy]-ethoxy)-ethoxy)-ethoxy]-ethoxy}-ethoxy)-ethoxy]-ethoxy}-propionoyl-γ-glutamyl) desB30 human insulin [example 16],31
12,N^εB29-(3-(3-{2-[2-(3-[7-carboxyheptanoylamino]propoxy)ethoxy]-ethoxy}propylcarbamoyl)propionyl) desB30 human insulin [example 7],35
13,N^εB29-(3-[2-{2-(2-[ω-carboxy-heptadecanoyl-γ-glutamyl-(2-amino-ethoxy)]-ethoxy)-ethoxy}-ethoxy]-propionyl) desB30 human insulin [example 2],12
14,N^εB29-(3-(3-{2-[2-(3-[9-Carboxynonanoylamino]propoxy)ethoxy]ethoxy}-propylcarbamoyl)propionyl) desB30 human insulin [example 9],34
15,N^εB29-(3-(2-{2-[2-(2-{2-[2-(2-{2-[2-(2-{2-[2-(13-carboxy-tridecanoylamino)-ethoxy]-ethoxy}-ethoxy)-ethoxy]-ethoxy}-ethoxy)-ethoxy]-ethoxy}-ethoxy)-ethoxy]-ethoxy}-ethoxy)-propionoyl-γ-glutamyl) desB30 human insulin [example 14],15
